Results as given in US11566007B2, “Ras inhibitors” (Revolution Medicines, Inc., priority 2019, dated 2023).
Values joined by “and” are separate entries in the source; they are usually repeats but may differ in a detail not shown here. Equal values may be shown once.

Legend:
Type in all cases: biochemical
NRAS Q61K = NRAS Q61K (Homo sapiens (Human), UniProt P01111+P62937, Q61K); assay: Ras-Raf (BRAF RBD) disruption / FRET / MOA assay, NRAS Q61K; conditions: NRAS Q61K; Ras-Raf disruption/FRET/MOA assay; read-out: IC50* NRAS Q61K FRET data
Procedure, shortened: (§1)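 Compounds (30 μM top final, 10-point 3-fold dilutions) incubated 3 h at 25° C with nucleotide-loaded Ras, cyclophilin A and BRAF RBD. Detection with 10 nM anti-His Eu-W1024 and 50 nM anti-GST allophycocyanin over another 1.5 h. Lowered TR-FRET ratio relative to DMSO wells gives IC50.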

KRAS G12S = KRAS G12S (Homo sapiens (Human), UniProt P01116+P62937, G12S); assay: Ras-Raf (BRAF RBD) disruption / FRET / MOA assay, KRAS G12S; conditions: Ras-Raf disruption/FRET/MOA assay; class symbols; read-out: KRAS G12S FRET data IC50
Procedure, shortened: (§2)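 A 10-point, 3-fold dilution series topping at 30 μM final was incubated 3 h at 25° C with the Ras/cyclophilin A/BRAF RBD mixture.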

K-Ras G13C = K-Ras G13C (Homo sapiens (Human), UniProt P01116+P62937, G13C); assay: Ras-Raf (BRAF RBD) disruption / FRET / MOA assay, KRAS G13C; conditions: KRAS G13C; Ras-Raf disruption/FRET/MOA assay; read-out: IC50* KRAS G13C FRET data
Procedure, shortened: as §2

KRAS Q61H = KRAS Q61H (Homo sapiens (Human), UniProt P01116+P62937, Q61H); assay: Ras-Raf (BRAF RBD) disruption / FRET / MOA assay, KRAS Q61H; conditions: Ras-Raf disruption/FRET/MOA assay; class symbols; read-out: KRAS Q61H FRET data IC50
Procedure, shortened: as §1

KRAS WT = KRAS WT (Homo sapiens (Human), UniProt P01116+P62937); assay: Ras-Raf (BRAF RBD) disruption / FRET / MOA assay, KRAS WT; conditions: read-out: IC50* KRAS WT FRET data
Procedure, shortened: as §2

KRAS G12D = KRAS G12D (Homo sapiens (Human), UniProt P01116+P62937, G12D); assay: Ras-Raf (BRAF RBD) disruption / FRET / MOA assay, KRAS G12D; conditions: Ras-Raf disruption/FRET/MOA assay; class symbols; read-out: KRAS G12D FRET data IC50
Procedure, shortened: as §2

KRAS G13D = KRAS G13D (Homo sapiens (Human), UniProt P01116+P62937, G13D); assay: Ras-Raf (BRAF RBD) disruption / FRET / MOA assay, KRAS G13D; conditions: read-out: IC50* KRAS G13D FRET data
Procedure, shortened: as §2

Chain of NRAS Q61K (P01111 whole entry Q61K): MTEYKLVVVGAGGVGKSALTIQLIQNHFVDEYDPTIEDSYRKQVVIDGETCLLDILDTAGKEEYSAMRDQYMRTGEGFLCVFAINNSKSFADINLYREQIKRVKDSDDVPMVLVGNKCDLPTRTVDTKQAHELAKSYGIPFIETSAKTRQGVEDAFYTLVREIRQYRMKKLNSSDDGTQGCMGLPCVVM
Chain of NRAS Q61K (P62937 whole entry): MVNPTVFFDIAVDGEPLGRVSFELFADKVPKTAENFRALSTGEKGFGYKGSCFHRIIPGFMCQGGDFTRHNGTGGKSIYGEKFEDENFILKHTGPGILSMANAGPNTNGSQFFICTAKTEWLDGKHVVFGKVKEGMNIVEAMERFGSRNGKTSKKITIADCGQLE
Chain of KRAS G12S (P01116-2 other isoform, or with tags, fused parts or gaps G12S): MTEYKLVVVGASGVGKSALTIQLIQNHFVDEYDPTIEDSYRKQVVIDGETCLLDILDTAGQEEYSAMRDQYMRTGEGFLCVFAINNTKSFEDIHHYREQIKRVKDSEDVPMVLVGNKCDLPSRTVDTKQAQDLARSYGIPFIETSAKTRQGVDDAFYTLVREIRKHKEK
Chain of KRAS G12S (P62937 whole entry): as the sequence (P62937 whole entry) above
Chain of KRAS Q61H (P01116-2 other isoform, or with tags, fused parts or gaps Q61H): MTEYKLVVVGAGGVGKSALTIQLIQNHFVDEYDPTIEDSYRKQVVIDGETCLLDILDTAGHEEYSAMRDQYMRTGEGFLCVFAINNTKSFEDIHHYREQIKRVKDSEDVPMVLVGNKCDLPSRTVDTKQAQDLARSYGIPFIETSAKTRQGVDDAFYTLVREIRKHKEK
Chain of KRAS Q61H (P62937 whole entry): as the sequence (P62937 whole entry) above
Chain of K-Ras G13C (P01116-2 other isoform, or with tags, fused parts or gaps G13C): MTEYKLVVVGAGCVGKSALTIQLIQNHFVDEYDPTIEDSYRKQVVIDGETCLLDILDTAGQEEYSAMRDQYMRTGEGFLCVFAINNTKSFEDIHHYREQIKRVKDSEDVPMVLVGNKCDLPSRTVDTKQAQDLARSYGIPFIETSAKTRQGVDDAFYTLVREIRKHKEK
Chain of K-Ras G13C (P62937 whole entry): as the sequence (P62937 whole entry) above
Chain of KRAS G13D (P01116-2 other isoform, or with tags, fused parts or gaps G13D): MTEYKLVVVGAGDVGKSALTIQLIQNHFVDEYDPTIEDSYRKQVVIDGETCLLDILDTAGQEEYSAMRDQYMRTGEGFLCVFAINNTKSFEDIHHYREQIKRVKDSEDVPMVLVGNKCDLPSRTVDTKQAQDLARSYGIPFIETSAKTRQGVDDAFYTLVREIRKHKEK
Chain of KRAS G13D (P62937 whole entry): as the sequence (P62937 whole entry) above
Chain of KRAS G12D (P01116-2 other isoform, or with tags, fused parts or gaps G12D): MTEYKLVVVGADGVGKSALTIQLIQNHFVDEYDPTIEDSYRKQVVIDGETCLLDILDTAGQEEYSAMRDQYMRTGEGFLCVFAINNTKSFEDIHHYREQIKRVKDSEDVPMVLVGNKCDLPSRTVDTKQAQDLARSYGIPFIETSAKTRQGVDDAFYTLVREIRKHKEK
Chain of KRAS G12D (P62937 whole entry): as the sequence (P62937 whole entry) above
Chain of KRAS WT (P01116-2 other isoform, or with tags, fused parts or gaps): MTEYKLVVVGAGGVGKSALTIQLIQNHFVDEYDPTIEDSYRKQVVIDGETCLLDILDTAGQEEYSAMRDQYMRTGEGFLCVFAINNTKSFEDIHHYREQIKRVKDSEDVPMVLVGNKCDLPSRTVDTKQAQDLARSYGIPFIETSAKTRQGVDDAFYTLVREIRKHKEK
Chain of KRAS WT (P62937 whole entry): as the sequence (P62937 whole entry) above

Row | Structure (SMILES) | IC50 (NRAS Q61K) | IC50 (KRAS G12S) | IC50 (K-Ras G13C) | IC50 (KRAS Q61H) | IC50 (KRAS WT) | IC50 (KRAS G12D) | IC50 (KRAS G13D)
1 | C=CC(=O)N1CCC2(CC1)CCN(C(=O)N(C)[C@H](C(=O)N[C@H]1Cc3nc(cs3)-c3ccc4c(c3)c(c(-c3cccnc3[C@H](C)OC)n4CC)CC(C)(C)COC(=O)[C@@H]3CCCN(N3)C1=O)C(C)C)CC2 (atropisomer, axis not shown) [Example A697] | 10 to 100 nM | 100 to 1000 nM | 100 to 1000 nM | 10 to 100 nM | 100 to 1000 nM | 100 to 1000 nM | 100 to 1000 nM
2 | C=CC(=O)N1CCC(F)(C(=O)N(C)[C@H](C(=O)N[C@H]2Cc3nc(cs3)-c3ccc4c(c3)c(c(-c3cccnc3[C@H](C)OC)n4CC)CC(C)(C)COC(=O)[C@@H]3CCCN(N3)C2=O)C(C)C)CC1 (atropisomer, axis not shown) [Example A700] | 100 to 1000 nM | 100 to 1000 nM | 100 to 1000 nM | 100 to 1000 nM | 100 to 1000 nM | 100 to 1000 nM | 100 to 1000 nM
3 | C=CC(=O)N1CCO[C@H]2CN(C(=O)N(C)[C@H](C(=O)N[C@H]3Cc4nc(cs4)-c4ccc5c(c4)c(c(-c4cccnc4[C@H](C)OC)n5CC)CC(C)(C)COC(=O)[C@@H]4CCCN(N4)C3=O)C(C)C)C[C@H]21 (atropisomer, axis not shown) [Example A706] | 100 to 1000 nM | 1000 to 10000 nM | 10 to 100 nM | 100 to 1000 nM | 1000 to 10000 nM | > 10000 nM | 1000 to 10000 nM
4 | CO[C@@H](C)c1ncccc1-c1c2c3cc(ccc3n1CC(F)(F)F)-c1cnc(o1)C[C@H](NC(=O)[C@H](C(C)C)N(C)C(=O)[C@H]1CCN(C(=O)C#CC(C)(C)N(C)C)C1)C(=O)N1CCC[C@H](N1)C(=O)OCC(C)(C)C2 (atropisomer, axis not shown) [Example A707] | > 10000 nM | 1000 to 10000 nM | 100 to 1000 nM | 1000 to 10000 nM | 1000 to 10000 nM | 1000 to 10000 nM | 1000 to 10000 nM
5 | CO[C@@H](C)c1ncccc1-c1c2c3nc(ccc3n1CC(F)(F)F)-c1cccc(c1)C[C@H](NC(=O)[C@@H](COC1CN(C(=O)C#CC(C)(C)N(C)C)C1)C(C)C)C(=O)N1CCC[C@H](N1)C(=O)OCC(C)(C)C2 (atropisomer, axis not shown) [Example A724] | > 10000 nM | > 10000 nM | > 10000 nM | > 10000 nM | > 10000 nM | > 10000 nM | > 10000 nM
6 | CCn1c(-c2cccnc2[C@H](C)OC)c2c3cc(ccc31)-c1cccc(c1)C[C@H](NC(=O)[C@H](C(C)C)N1CO[C@@]3(CCN(C(=O)C#CC(C)(C)N4CCC4)C3)C1=O)C(=O)N1CCC[C@H](N1)C(=O)OCC(C)(C)C2 (atropisomer, axis not shown) [Example A733] | > 10000 nM | 1000 to 10000 nM | 100 to 1000 nM | 1000 to 10000 nM | > 10000 nM | > 10000 nM | > 10000 nM
7 | C=CC(=O)N1CCN(C(=O)N(C)[C@H](C(=O)N[C@H]2Cc3nc(cs3)-c3ccc4c(c3)c(c(-c3cccnc3[C@H](C)OC)n4CC)CC(C)(C)COC(=O)[C@@H]3CCCN(N3)C2=O)C(C)C)[C@@H]2C[C@@H]21 (atropisomer, axis not shown) [Example A736] | 10 to 100 nM | 10 to 100 nM | 10 to 100 nM | 10 to 100 nM | 10 to 100 nM | 100 to 1000 nM | 100 to 1000 nM
8 | C=CC(=O)C1CC[C@H](C(=O)N(C)[C@H](C(=O)N[C@H]2Cc3cc(O)cc(c3)-c3ccc4c(c3)c(c(-c3cnn(C)c3[C@H](C)OC)n4CC)CC(C)(C)COC(=O)[C@@H]3CCCN(N3)C2=O)C(C)C)C1 (some centres unmarked) [Example A166] | 1000 to 10000 nM | 100 to 1000 nM | 100 to 1000 nM | 100 to 1000 nM | 100 to 1000 nM | 1000 to 10000 nM | 1000 to 10000 nM
9 | C=CC(=O)N1CC[C@H](C(=O)N(C)[C@H](C(=O)N[C@H]2Cc3cc(O)cc(c3)-c3ccc4c(c3)c(c(-c3cncc5c3[C@@H](OC)CC5)n4CC)CC(C)(C)COC(=O)[C@@H]3CCCN(N3)C2=O)C(C)C)C1 [Example A275] | 100 to 1000 nM | 10 to 100 nM | 10 to 100 nM | 10 to 100 nM | 100 to 1000 nM | 100 to 1000 nM | 100 to 1000 nM
10 | C=CC(=O)N1CC[C@H](C(=O)N(C)[C@H](C(=O)N[C@H]2Cc3nc(ns3)-c3ccc4c(c3)c(c(-c3cncnc3)n4CC)CC(C)(C)COC(=O)[C@@H]3CCCN(N3)C2=O)C(C)C)C1 [Example A285] | > 10000 nM | > 10000 nM | > 10000 nM | > 10000 nM | > 10000 nM | > 10000 nM | > 10000 nM
11 | C=CC(=O)N1CC[C@H](C(=O)N(C)[C@H](C(=O)N[C@H]2Cc3cc(O)cc(c3)-c3ccc4c(c3)c(c(-c3cnn5c3[C@@H](OC)CCC5)n4CC)CC(C)(C)COC(=O)[C@@H]3CCCN(N3)C2=O)C(C)C)C1 [Example A300] | 100 to 1000 nM | 10 to 100 nM | 10 to 100 nM | 10 to 100 nM | 10 to 100 nM | 100 to 1000 nM | 10 to 100 nM
12 | CCn1c(-c2cccnc2[C@H](C)OC)c2c3cc(ccc31)-c1cccc(c1)C[C@H](NC(=O)C(COC1CN(C(=O)C#CC(C)(C)N(C)C)C1)C(C)C)C(=O)N1CCC[C@H](N1)C(=O)OCC(C)(C)C2 (stereo partly drawn) [Example A316, (2R)-2-(((1-(4-(dimethylamino)-4-methylpent-2-ynoyl)azetidin-3-yl)oxy)methyl)-N-((6^3S,4S)-1^1-ethyl-1^2-(2-((S)-1-methoxyethyl)pyridin-3-yl)-10,10-dimethyl-5,7-dioxo-6^1,6^2,6^3,6^4,6^5,6^6-hexahydro-1^1H-8-oxa-1(5,3)-indola-6(1,3)-pyridazina-2(1,3)-benzenacycloundecaphane-4-yl)-3-methylbutanamide] | > 10000 nM | > 10000 nM | 1 µM to 10 µM (2×) and > 10 µM | > 10000 nM | > 10000 nM | > 10000 nM | > 10000 nM
13 | C=CC(=O)N1CCC(C(=O)N(C)[C@H](C(=O)N[C@H]2Cc3cc(CF)cc(c3)-c3ccc4c(c3)c(c(-c3cccnc3[C@H](C)OC)n4CC(F)(F)F)CC(C)(C)COC(=O)[C@@H]3CCCN(N3)C2=O)C(C)C)C1 (some centres unmarked) [Example A659] | 1000 to 10000 nM | 100 to 1000 nM | 100 to 1000 nM | 100 to 1000 nM | 100 to 1000 nM | 1000 to 10000 nM | 100 to 1000 nM
14 | CCn1c(-c2cccnc2[C@H](C)OC)c2c3cc(ccc31)N1CCO[C@@H](C[C@H](NC(=O)[C@H](C(C)C)N(C)C(=O)[C@@]3(F)CCC(C(=O)C#CC(C)(C)N4CCC4)C3)C(=O)N3CCC[C@H](N3)C(=O)OCC(C)(C)C2)C1 (some centres unmarked) [Example A726] | > 10000 nM | 1000 to 10000 nM | 100 to 1000 nM | 1000 to 10000 nM | 1000 to 10000 nM | > 10000 nM | 1000 to 10000 nM
